Source: article PMC8044046 (European journal of medicinal chemistry, 2021)

Legend:
Experiment in all cases: CellTiter Glo cell viability
Assay type in all cases: cell-based
[1] = test system: BT-474 (HER2+) breast cancer cell line; details: read-out: IC50 (μM) BT-474 (HER2+); antiproliferative activity, 72 h, N=3, ±S.E
MCF-7 (HER2−) cell line = details: read-out: IC50 (μM) MCF-7 (HER2−); antiproliferative activity, 72 h, N=3
[2] = test system: Calu-3 (HER2+) lung cancer cell line; details: read-out: IC50 (μM) Calu-3 (HER2+); antiproliferative activity, 72 h, N=3, ±S.E
[3] = test system: A549 (HER2+) NSCLC cell line; details: read-out: IC50 (μM) A549 (HER2+); antiproliferative activity, 72 h, N=3, ±S.E

Measured: IC50

H2N-K(S-(3-amino-3(biphenyl)propionic acid)F-OH [Control]
> 100 µM: [1] | MCF-7 (HER2−) cell line | [2] | [3]
